Experimental data: article PMC5442763, “Selective Inhibition of ADAM17 Efficiently Mediates Glycoprotein Ibα Retention During Ex Vivo Generation of Human Induced Pluripotent Stem Cell‐Derived Platelets” (Stem Cells Translational Medicine, 2016)
Peptide text beside a SMILES is read from it. * marks the point of attachment. Cbz = O=C(OCc1ccccc1)*; CH2F = FC*

How the values were obtained:
[1] = tested on: human iPSC-derived MKs and platelets; assay: Generation of MKs and platelets from human iPSC-derived HPCs at 37°C, flow cytometry; format: cell-based; settings: for GPIbα retention by iPSC-derived platelets, inhibitor only during platelet production phase: days 21–23 or 24, KP-457 15, BIRB796 10, U0126 10, BMS345541 10, Z-VAD 10, Ro31-8220 3 μmol/l; for number of CD41a+ total iPSC platelets / retention of GPIbα expression on CD41a+ iPSC-derived platelets / number of CD41a+ iPSC-derived MKs: KP-457 15 μmol/l, GM-6001 50 μmol/l, p38 MAP kinase inhibitor 10 μmol/l; for number of CD41a+ iPSC-derived MKs: MK differentiation and platelet production phases
Protocol: Directed differentiation to MKs and platelets from iPSCs and ESCs was performed as described previously. Briefly, 3 × 10^4 HPCs derived from iPS‐sacs on C3H10T1/2 feeder cells in the presence of 20 ng/ml vascular endothelial growth factor were transferred on day 14 of culture onto C3H10T1/2 feeder cells in differentiation medium supplemented with 50 ng/ml stem cell factor, 100 ng/ml thrombopoietin, 25 U/ml heparin sodium, and test compounds at 24°C or 37°C. The medium was refreshed every 3 days, and nonadherent cells were collected and analyzed on days 22–24.
(§1) Flow cytometric analysis was performed as previously described. Briefly, iPSC‐ and ESC‐derived MKs on days 22–24 and platelets in their supernatants were stained with combinations of antibodies for 30 minutes on ice (for MKs) or at room temperature (for platelets). Samples of MKs/platelets were then washed, diluted with staining medium (phosphate‐buffered saline containing 3% fetal bovine serum), and analyzed using flow cytometry (FACSAria; BD). Trucount tubes (BD) were used to quantify the MKs and platelets.

[2] = tested on: ADAM17; set-up: method as in PMID 25049354; settings: cited from earlier work
[3] = molecular target: T1, Human ADAM17 (Homo sapiens, UniProt P78536); assay: MMP and ADAM activity assay (fluorescence-based, cell-free): ADAM17; format: biochemical; settings: cell-free fluorescence assay, TNF-α cleavage site substrate
T1 construct: purchased R&D Systems
Text: (§2) Human ADAM17, ADAM10, and MMP17 were from R&D Systems (Minneapolis, MN, http://www.rndsystems.com), and human MMP1, MMP2, MMP3, MMP8, MMP9, MMP13, and MMP14 were from EMD Millipore. MMP1, MMP2, MMP8, MMP9, MMP13, and MMP17 were activated using p‐aminophenylmercuric acetate (Sigma‐Aldrich) before testing. Fluorogenic substrates for measuring activity of ADAM10 and ADAM17 [Nma‐[…](Dnp)r‐NH2, based on the cleavage site of TNF‐α]; MMP1, MMP9, MMP13, and MMP14 [Dnp‐P‐Cha‐GC(Me)HAK(N‐Me‐Abz)‐NH2]; MMP3 [MOCAc‐RPKPVE‐Nva‐WRK(Dnp)‐NH2]; and MMP2, MMP8, and MMP17 [MOCAc‐PLGL‐A2pr(Dnp)‐AR‐NH2] were all provided by Peptide Institute (Osaka, Japan, https://www.peptide.co.jp/en) and used as substrates. In addition, inhibitory activities were measured using LC/MS/MS with a GPIbα‐based substrate peptide ([…]), a C terminal‐based standard peptide ([…]), and an internal standard peptide ([…]). These peptides were synthetized by Scrum (Tokyo, Japan, http://www.scrum‐net.co.jp/english/top_en.htm).

[4] = tested on: mouse ESC-derived platelets; set-up: method as in PMID 18663123; settings: 100 µmol/l; cited from earlier work
[5] = molecular target: T2, human ADAM10 (Homo sapiens, UniProt O14672); assay: MMP and ADAM activity assay (fluorescence-based): ADAM10; format: biochemical; settings: cell-free fluorescence assay
T2 construct: purchased R&D Systems
Protocol: as §2, with “KP‐457 and GM‐6001 were tested for their ability to inhibit MMP‐ and ADAM‐catalyzed cleavage of substrates in a fluorescence‐based assay. Human” for “Human”

[6] = molecular target: T1, Human ADAM17; assay: Cleavage of GPIbα-based substrate peptide by ADAM17 (LC/MS/MS); format: biochemical; settings: read-out: IC50, inhibition of C-terminal cleavage of the GPIbα sequence by ADAM17
Text: as §2
(1 picture or pasted object on this page, not shown here)

[7] = molecular target: T3, human MMP3 (Homo sapiens, UniProt P08254); assay: MMP and ADAM activity assay (fluorescence-based): MMP3; format: biochemical; settings: cell-free fluorescence assay
T3 construct: purchased EMD Millipore
Protocol: as §2, with “KP‐457 and GM‐6001 were tested for their ability to inhibit MMP‐ and ADAM‐catalyzed cleavage of substrates in a fluorescence‐based assay. Human” for “Human”

[8] = molecular target: T4, human MMP17 (Homo sapiens, UniProt Q9ULZ9); assay: MMP and ADAM activity assay (fluorescence-based): MMP17; format: biochemical; settings: cell-free fluorescence assay
T4 construct: purchased R&D Systems
Protocol: as §2, with “KP‐457 and GM‐6001 were tested for their ability to inhibit MMP‐ and ADAM‐catalyzed cleavage of substrates in a fluorescence‐based assay. Human” for “Human”

[9] = molecular target: T5, human MMP14 (Homo sapiens, UniProt P50281); assay: MMP and ADAM activity assay (fluorescence-based): MMP14; format: biochemical; settings: cell-free fluorescence assay
T5 construct: purchased EMD Millipore
Protocol: as §2, with “KP‐457 and GM‐6001 were tested for their ability to inhibit MMP‐ and ADAM‐catalyzed cleavage of substrates in a fluorescence‐based assay. Human” for “Human”

[10] = molecular target: T6, human MMP13 (Homo sapiens, UniProt P45452); assay: MMP and ADAM activity assay (fluorescence-based): MMP13; format: biochemical; settings: cell-free fluorescence assay
T6 construct: purchased EMD Millipore
Text: as §2

[11] = tested on: human washed platelets; assay: CCCP-induced GPIbα shedding from washed platelets; format: cell-based; settings: relative to maximum inhibition elicited by KP-457 or GM-6001
Protocol: as §1
Washed platelets were prepared as described elsewhere.

[12] = tested on: mouse platelets; set-up: method as in PMID 23801636; settings: cited from earlier work
[13] = tested on: platelet aggregation; assay: Platelet aggregation induced by thrombin or collagen; format: cell-based

T1 sequence (P78536 215-824): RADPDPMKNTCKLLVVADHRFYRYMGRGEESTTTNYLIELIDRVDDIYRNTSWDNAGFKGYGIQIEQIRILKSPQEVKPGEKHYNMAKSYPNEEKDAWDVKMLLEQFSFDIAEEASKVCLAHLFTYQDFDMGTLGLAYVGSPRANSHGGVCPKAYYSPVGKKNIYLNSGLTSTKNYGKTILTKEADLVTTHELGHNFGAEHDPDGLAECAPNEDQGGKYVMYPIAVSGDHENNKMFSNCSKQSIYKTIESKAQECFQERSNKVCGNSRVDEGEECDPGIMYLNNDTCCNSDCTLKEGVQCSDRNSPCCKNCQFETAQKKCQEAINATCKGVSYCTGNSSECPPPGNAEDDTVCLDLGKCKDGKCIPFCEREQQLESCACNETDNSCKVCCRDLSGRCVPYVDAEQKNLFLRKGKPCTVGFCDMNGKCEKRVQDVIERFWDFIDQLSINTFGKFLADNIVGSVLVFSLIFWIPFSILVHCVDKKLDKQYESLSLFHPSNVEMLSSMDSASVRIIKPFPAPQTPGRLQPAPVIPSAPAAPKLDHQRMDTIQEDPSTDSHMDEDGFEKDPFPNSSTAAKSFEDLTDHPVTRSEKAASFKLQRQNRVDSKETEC
T4 sequence (Q9ULZ9 126-565 limits assumed): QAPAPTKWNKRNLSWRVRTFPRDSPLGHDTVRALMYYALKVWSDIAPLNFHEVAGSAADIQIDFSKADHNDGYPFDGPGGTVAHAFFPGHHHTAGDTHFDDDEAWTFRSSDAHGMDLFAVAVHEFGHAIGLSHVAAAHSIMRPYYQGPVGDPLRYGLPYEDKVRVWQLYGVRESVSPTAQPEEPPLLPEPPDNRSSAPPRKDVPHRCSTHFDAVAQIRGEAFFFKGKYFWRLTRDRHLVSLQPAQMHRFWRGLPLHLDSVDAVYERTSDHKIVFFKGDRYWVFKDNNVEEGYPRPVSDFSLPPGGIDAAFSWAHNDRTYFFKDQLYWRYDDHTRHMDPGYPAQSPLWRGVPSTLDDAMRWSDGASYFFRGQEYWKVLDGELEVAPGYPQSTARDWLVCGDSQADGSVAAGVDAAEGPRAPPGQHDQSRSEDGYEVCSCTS
T2 sequence (O14672 214-748): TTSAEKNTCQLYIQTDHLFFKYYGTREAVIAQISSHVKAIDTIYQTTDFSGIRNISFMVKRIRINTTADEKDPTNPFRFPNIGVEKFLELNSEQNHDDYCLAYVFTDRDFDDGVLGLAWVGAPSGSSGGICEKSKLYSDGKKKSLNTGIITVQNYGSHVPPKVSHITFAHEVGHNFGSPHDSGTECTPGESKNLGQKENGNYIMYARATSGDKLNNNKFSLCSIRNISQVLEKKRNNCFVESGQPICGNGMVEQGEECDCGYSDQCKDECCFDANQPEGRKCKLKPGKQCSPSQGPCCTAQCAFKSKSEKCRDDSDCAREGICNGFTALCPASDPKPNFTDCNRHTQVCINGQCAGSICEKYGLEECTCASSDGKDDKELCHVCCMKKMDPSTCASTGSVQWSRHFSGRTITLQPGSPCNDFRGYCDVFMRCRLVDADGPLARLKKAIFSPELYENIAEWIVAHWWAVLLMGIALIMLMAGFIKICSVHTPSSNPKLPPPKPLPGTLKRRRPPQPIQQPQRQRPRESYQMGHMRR
T3 sequence (P08254 100-477): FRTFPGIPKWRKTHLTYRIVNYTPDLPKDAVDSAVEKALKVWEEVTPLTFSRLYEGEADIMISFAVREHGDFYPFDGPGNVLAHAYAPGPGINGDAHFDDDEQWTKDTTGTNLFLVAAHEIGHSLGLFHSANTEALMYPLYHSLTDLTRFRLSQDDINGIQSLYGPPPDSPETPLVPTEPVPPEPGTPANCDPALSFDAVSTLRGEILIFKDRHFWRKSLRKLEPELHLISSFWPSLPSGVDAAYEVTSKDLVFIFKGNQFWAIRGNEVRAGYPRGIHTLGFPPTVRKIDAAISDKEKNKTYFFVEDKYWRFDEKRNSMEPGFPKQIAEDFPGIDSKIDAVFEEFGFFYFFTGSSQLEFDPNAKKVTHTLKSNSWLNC

## CC(NC(=O)C(NC(=O)OCc1ccccc1)C(C)C)C(=O)NC(CC(=O)O)C(=O)CF (stereo not drawn) [Z‐VAD] (Cbz-Val-Ala-Asp-CH2F; configuration not given here)
[1]
  GPIbα retention by iPSC-derived platelets, inhibitor only during platelet production phase: failed to prevent

## Cc1ccc2nc(NCCN)c3ncc(C)n3c2c1 [BMS345541]
[1]
  GPIbα retention by iPSC-derived platelets, inhibitor only during platelet production phase: failed to prevent

## COc1ccc(S(=O)(=O)N2Cc3ccccc3C[C@@H]2C(=O)NO)cc1 [M8I]
[2]
  ADAM17 inhibition: potently inhibits ADAM17

## N#CC(=C(/N)Sc1ccccc1N)/C(C#N)=C(/N)Sc1ccccc1N [U0126]
[1]
  GPIbα retention by iPSC-derived platelets, inhibitor only during platelet production phase: failed to prevent

## CNC(=O)[C@H](Cc1c[nH]c2ccccc12)NC(=O)[C@@H](CC(=O)NO)CC(C)C [GM-6001]
[3]
  IC50: 0.163 µM
[4]
  GPVI shedding during platelet generation from mouse ESCs: partially inhibited
[5]
  IC50: 0.642 µM
[6]
  IC50: 0.0538 µM
[7]
  IC50: 0.0798 µM
[8]
  IC50: 0.00516 µM
[9]
  IC50: 0.00296 µM
[10]
  IC50: 0.000435 µM
[1]
  number of CD41a+ total iPSC platelets: no significant effect
  retention of GPIbα expression on CD41a+ iPSC-derived platelets: able to retain
  number of CD41a+ iPSC-derived MKs: no significant effect

## Cn1cc(C2=C(c3cn(CCCSC(=N)N)c4ccccc34)C(=O)NC2=O)c2ccccc21 [Ro31‐8220]
[1]
  GPIbα retention by iPSC-derived platelets, inhibitor only during platelet production phase: failed to prevent

## C[S+]([O-])c1ccc(-c2nc(-c3ccncc3)c(-c3ccc(F)cc3)[nH]2)cc1 (centres unmarked) [SB203580]
[11]
  plateau of the inhibitory effect on CCCP-induced GPIbα shedding: around half the maximum inhibition
[12]
  suppression of thrombin-induced GPIbα shedding from mouse platelets compared with GM-6001: less effectively
[13]
  effect on collagen-induced platelet aggregation: diminished
[1]
  number of CD41a+ total iPSC platelets: increased
  retention of GPIbα expression on CD41a+ iPSC-derived platelets: failed to preserve
  number of CD41a+ iPSC-derived MKs: increased

## Cc1ccc(-n2nc(C(C)(C)C)cc2NC(=O)Nc2ccc(OCCN3CCOCC3)c3ccccc23)cc1 [BIRB796]
[11]
  plateau of the inhibitory effect on CCCP-induced GPIbα shedding: around half the maximum inhibition
[13]
  effect on collagen-induced platelet aggregation: diminished
[1]; BIRB796 10 μmol/l, representative FACS plot, vehicle 48.3%
  GPIbα+ population in human iPSC-derived CD41a+ platelets: 48.0%
[1]
  number of CD41a+ total iPSC platelets: increased
  retention of GPIbα expression on CD41a+ iPSC-derived platelets: failed to preserve
  number of CD41a+ iPSC-derived MKs: increased
  GPIbα retention by iPSC-derived platelets, inhibitor only during platelet production phase: failed to prevent
